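Five compound concentrations were applied to cells in 96-well plates for 48 hours; endpoints were derived by simple linear interpolation of the resulting dose-response curve. Abbreviation: GI50, concentration required for 50% inhibition of growth. TGI: concentration producing complete growth inhibition.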
Assays:
Assay in all cases: DTP human tumour cell line panel, 48 h
OVCAR-4 ovarian = tested on: OVCAR-4 ovarian
HCT-116 colon = tested on: HCT-116 colon
CAKI-1 renal = tested on: CAKI-1 renal
SF-539 CNS = tested on: SF-539 CNS
ACHN renal = tested on: ACHN renal
NCI-H460 lung = tested on: NCI-H460 lung
OVCAR-5 ovarian = tested on: OVCAR-5 ovarian
SN12C renal = tested on: SN12C renal
A498 renal = tested on: A498 renal

Structure (SMILES)	TGI (OVCAR-4 ovarian)	TGI (HCT-116 colon)	TGI (CAKI-1 renal)	TGI (SF-539 CNS)	TGI (ACHN renal)	TGI (NCI-H460 lung)	TGI (OVCAR-5 ovarian)	TGI (SN12C renal)	GI50 (OVCAR-4 ovarian)	GI50 (A498 renal)	TGI (A498 renal)	GI50 (HCT-116 colon)	GI50 (CAKI-1 renal)	GI50 (SF-539 CNS)	GI50 (ACHN renal)	GI50 (NCI-H460 lung)	GI50 (OVCAR-5 ovarian)	GI50 (SN12C renal)
CCOC(=O)C(=O)Nc1ccccc1CC	> 100 µM	> 100 µM	> 100 µM	> 100 µM	> 100 µM	> 100 µM	> 100 µM	> 100 µM	–	–	–	–	–	–	–	–	–	–
O=C1/C(=C(/c2ccccc2)N2CCOCC2)Cc2ccccc21	3 µM	2.44 µM	2.08 µM	3.91 µM	3.69 µM	18.6 µM	9.57 µM	6.33 µM	1.52 µM	5.19 µM	11.4 µM	0.919 µM	0.186 µM	1.9 µM	1.64 µM	4.52 µM	3.26 µM	2.16 µM
O=C1C2C3C=C4c5ccccc5N(c5ccccc5)C4(C2C(=O)N1c1ccc([N+](=O)[O-])cc1)[C@H]1C(=O)N(c2ccc([N+](=O)[O-])cc2)C(=O)[C@@H]31 (some centres not stated)	> 100 µM	> 100 µM	> 100 µM	> 100 µM	> 100 µM	> 100 µM	> 100 µM	> 100 µM	–	–	> 100 µM	–	–	–	–	–	–	–
c1ccc(C2N3CCCCC3[C@@H]3c4[nH]c5ccccc5c4CCN23)nc1 (some centres not stated)	> 100 µM	> 100 µM	> 100 µM	> 100 µM	> 100 µM	> 100 µM	> 100 µM	> 100 µM	–	–	> 100 µM	–	–	–	–	–	–	–
Cc1cc(N(CCC#N)CCC#N)ccc1/C=C(\NC(=O)/C=C/c1ccccc1)C(N)=O	–	> 100 µM	> 100 µM	> 100 µM	> 100 µM	> 100 µM	> 100 µM	> 100 µM	–	–	> 100 µM	–	–	–	–	–	–	–
CC12OC(C(=O)C13CC3)C1C(=O)c3ccc4c(ccc5ccccc54)c3C(=O)C12 (configuration not stated)	–	> 100 µM	41.8 µM	> 100 µM	–	55.6 µM	> 100 µM	–	–	–	–	43.7 µM	19.7 µM	32.2 µM	–	15.6 µM	30.1 µM	–
CC1=[N+]([O-])c2ccccc2C(=O)C1=O	> 100 µM	> 100 µM	> 100 µM	> 100 µM	> 100 µM	> 100 µM	> 100 µM	> 100 µM	–	–	> 100 µM	–	–	–	–	–	–	–
COC(=O)C(CC(=O)Nc1ccc(C)cc1)C(=O)C(=O)Nc1c(C(C)C)cccc1C(C)C (configuration not stated)	> 100 µM	> 100 µM	> 100 µM	> 100 µM	> 100 µM	> 100 µM	> 100 µM	> 100 µM	–	–	> 100 µM	–	–	–	–	–	–	–
COc1cc(/C=C/c2ccc(OC)c(O)c2)cc(OC)c1	67.9 µM	12.3 µM	72.8 µM	8.47 µM	41.2 µM	14.1 µM	89.1 µM	30.3 µM	–	–	> 100 µM	–	–	–	–	–	–	–
COc1cc2c3c(n(CCCN)c(=O)c2cc1OC)-c1ccc(C#N)cc1C3=O	41.3 µM	32.3 µM	> 100 µM	–	28.5 µM	26.9 µM	33.2 µM	32.8 µM	20 µM	–	–	15.8 µM	34.9 µM	–	14.9 µM	7.16 µM	18 µM	16.8 µM
O=C(O)CNS(=O)(=O)c1ccc(NC(=O)c2ccc([N+](=O)[O-])cc2)cc1	> 100 µM	–	> 100 µM	> 100 µM	> 100 µM	> 100 µM	> 100 µM	> 100 µM	–	–	> 100 µM	–	–	–	–	–	–	–
COc1ccc(CN2CC(C)(C)C2=O)c(OC)c1	> 100 µM	> 100 µM	–	> 100 µM	> 100 µM	> 100 µM	–	> 100 µM	–	–	> 100 µM	–	–	–	–	–	–	–
NC(=O)c1cc(Cl)ccc1NC(=O)/C=C/c1ccccc1	> 100 µM	> 100 µM	–	5.53 µM	> 100 µM	> 100 µM	> 58.7 µM	> 100 µM	2.77 µM	5.09 µM	> 53.7 µM	2.66 µM	–	2.05 µM	4.75 µM	3.09 µM	–	5.47 µM
Cn1cc(C2(C)CC(C)(C)c3c2n(C)c2ccccc32)c2ccccc21 (configuration not stated)	–	–	> 100 µM	> 100 µM	–	> 100 µM	–	> 100 µM	–	–	> 100 µM	–	–	–	–	–	–	–
CCOC(=O)N[C@@H]1C(CC(=O)OC)O[C@H]2OC(C)(C)O[C@H]21 (some centres not stated)	> 100 µM	–	> 100 µM	> 100 µM	> 100 µM	> 100 µM	> 100 µM	> 100 µM	–	–	> 100 µM	–	–	–	–	–	–	–
COc1ccc(-c2nc3ccccn3c2/C=C/C(=O)c2cc(OC)c(OC)c(OC)c2)cc1OC	–	12 µM	20.2 µM	14.7 µM	15.7 µM	12.6 µM	53.3 µM	83.7 µM	–	2.93 µM	17.8 µM	2.62 µM	1.39 µM	2.71 µM	3.22 µM	2.99 µM	7.38 µM	4.1 µM

From PubChem BioAssay (NCI)
